Positions of bridges follow the written chain, without caps; N, C: chain ends. Residues, ends and D or L forms follow the SMILES beside them. A value given as a limit tells only on which side of the number the result lay.

Data on one molecule can be found in PMC8878501 (Marine Drugs, 2022).

One test addresses rα6/α3β2β3 nAChR (Rattus norvegicus, UniProt P04757+P12390+P12391+P43143). Briefly: cell-based.
In the next test the target is rα4β2 nAChR (Rattus norvegicus, UniProt P09483+P12390). As to the kind of experiment: cell-based. It is filed as cell-based.
Sequence of rα4β2 nAChR (P09483 31-630 limits assumed): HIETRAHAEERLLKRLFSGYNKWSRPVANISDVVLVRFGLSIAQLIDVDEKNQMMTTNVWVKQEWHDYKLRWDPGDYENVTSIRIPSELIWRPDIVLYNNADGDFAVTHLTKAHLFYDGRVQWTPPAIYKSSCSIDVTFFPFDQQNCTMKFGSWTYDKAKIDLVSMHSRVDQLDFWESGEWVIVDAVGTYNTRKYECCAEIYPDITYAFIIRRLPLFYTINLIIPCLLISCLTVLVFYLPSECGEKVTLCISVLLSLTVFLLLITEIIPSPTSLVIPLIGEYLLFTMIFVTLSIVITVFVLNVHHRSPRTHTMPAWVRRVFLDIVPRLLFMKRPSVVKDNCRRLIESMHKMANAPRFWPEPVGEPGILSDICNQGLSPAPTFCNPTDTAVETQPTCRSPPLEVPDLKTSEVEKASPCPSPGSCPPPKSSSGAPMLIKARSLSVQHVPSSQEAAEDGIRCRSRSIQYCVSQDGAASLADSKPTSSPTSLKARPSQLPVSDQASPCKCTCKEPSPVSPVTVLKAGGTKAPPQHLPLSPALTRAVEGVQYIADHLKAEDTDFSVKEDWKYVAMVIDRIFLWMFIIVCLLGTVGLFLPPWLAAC
Sequence of rα4β2 nAChR (P12390 25-500 limits assumed): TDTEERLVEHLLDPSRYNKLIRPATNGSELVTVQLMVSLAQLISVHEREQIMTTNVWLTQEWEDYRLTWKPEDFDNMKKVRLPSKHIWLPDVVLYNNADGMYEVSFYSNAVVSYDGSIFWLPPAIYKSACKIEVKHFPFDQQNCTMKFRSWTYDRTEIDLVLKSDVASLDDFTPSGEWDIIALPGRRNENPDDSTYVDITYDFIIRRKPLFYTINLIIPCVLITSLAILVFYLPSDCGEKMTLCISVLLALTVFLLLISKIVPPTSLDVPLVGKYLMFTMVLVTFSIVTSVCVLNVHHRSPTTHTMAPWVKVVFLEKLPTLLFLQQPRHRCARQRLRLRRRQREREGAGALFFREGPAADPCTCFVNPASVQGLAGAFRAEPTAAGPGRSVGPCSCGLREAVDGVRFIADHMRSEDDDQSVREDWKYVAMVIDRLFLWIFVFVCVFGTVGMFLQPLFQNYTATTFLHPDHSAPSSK
Another test deals with rα6/α3β4 nAChR (Rattus norvegicus, UniProt P04757+P12392+P43143). Briefly: cell-based. As to conditions: 20–25 °C.
Another test deals with rα9α10 nAChR (Rattus norvegicus, UniProt P43144+Q9JLB5). Briefly: cell-based. It is filed as cell-based.
Sequence of rα9α10 nAChR (P43144 26-479 limits assumed): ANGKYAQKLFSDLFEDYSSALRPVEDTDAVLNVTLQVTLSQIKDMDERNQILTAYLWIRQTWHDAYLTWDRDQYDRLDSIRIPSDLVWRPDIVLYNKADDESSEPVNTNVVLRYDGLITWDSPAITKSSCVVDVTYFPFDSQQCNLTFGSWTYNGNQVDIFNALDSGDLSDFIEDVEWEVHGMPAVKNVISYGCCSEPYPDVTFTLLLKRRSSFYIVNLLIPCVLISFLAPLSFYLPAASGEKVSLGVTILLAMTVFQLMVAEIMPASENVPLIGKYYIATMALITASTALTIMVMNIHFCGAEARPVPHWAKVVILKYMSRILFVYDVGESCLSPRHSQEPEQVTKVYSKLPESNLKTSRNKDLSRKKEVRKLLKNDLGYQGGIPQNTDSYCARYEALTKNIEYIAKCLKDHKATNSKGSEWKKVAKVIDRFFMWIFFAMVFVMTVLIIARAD
Sequence of rα9α10 nAChR (Q9JLB5 25-447 limits assumed): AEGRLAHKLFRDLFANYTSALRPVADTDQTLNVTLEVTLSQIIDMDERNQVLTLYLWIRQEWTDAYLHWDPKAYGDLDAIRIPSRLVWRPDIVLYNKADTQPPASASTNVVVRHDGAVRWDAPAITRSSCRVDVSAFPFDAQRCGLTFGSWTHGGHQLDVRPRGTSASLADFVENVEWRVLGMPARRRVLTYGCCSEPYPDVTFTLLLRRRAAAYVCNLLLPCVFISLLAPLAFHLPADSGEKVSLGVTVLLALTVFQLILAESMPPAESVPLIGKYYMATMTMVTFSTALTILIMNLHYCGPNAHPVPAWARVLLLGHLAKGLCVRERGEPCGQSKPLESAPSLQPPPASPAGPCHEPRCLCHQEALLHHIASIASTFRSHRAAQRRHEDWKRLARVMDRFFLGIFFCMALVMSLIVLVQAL
Another test deals with rα3β2 nAChR (Rattus norvegicus, UniProt P04757+P12390). As to the kind of experiment: cell-based. As to conditions: 20–25 °C.
Sequence of rα3β2 nAChR (P04757 26-499 limits assumed): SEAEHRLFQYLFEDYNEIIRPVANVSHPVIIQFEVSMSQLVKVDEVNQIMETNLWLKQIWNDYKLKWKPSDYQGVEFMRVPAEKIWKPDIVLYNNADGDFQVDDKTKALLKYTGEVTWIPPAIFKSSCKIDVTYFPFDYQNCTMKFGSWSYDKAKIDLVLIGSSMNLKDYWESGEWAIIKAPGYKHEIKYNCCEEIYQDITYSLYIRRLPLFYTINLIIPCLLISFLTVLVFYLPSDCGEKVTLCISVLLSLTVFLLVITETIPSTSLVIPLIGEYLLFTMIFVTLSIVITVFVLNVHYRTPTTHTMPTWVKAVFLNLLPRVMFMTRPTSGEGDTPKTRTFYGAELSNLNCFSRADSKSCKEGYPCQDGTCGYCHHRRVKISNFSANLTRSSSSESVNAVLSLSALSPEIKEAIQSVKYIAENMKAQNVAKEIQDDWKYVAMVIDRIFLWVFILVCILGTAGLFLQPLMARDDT
Sequence of rα3β2 nAChR (P12390 25-500 limits assumed): as the sequence (P12390 25-500 limits assumed) above
A further test has as its target rα3β4 nAChR (Rattus norvegicus, UniProt P04757+P12392). As to the kind of experiment: cell-based. It is filed as cell-based.
A further test deals with hα9α10 nAChR (Homo sapiens, UniProt Q9GZZ6+Q9UGM1). Briefly: cell-based.
Sequence of hα9α10 nAChR (Q9UGM1 26-479 limits assumed): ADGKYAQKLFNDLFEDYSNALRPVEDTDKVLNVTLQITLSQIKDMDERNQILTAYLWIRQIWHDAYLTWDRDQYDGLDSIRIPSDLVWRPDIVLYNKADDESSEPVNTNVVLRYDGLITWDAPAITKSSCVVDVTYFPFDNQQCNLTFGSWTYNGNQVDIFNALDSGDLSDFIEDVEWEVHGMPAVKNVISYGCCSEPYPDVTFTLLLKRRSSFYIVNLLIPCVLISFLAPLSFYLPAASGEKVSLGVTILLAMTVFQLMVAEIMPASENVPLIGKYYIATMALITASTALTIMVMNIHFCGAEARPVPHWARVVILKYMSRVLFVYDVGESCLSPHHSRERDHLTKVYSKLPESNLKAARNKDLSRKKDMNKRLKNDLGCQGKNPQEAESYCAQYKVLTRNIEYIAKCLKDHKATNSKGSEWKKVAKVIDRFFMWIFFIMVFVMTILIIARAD
Sequence of hα9α10 nAChR (Q9GZZ6 25-450 limits assumed): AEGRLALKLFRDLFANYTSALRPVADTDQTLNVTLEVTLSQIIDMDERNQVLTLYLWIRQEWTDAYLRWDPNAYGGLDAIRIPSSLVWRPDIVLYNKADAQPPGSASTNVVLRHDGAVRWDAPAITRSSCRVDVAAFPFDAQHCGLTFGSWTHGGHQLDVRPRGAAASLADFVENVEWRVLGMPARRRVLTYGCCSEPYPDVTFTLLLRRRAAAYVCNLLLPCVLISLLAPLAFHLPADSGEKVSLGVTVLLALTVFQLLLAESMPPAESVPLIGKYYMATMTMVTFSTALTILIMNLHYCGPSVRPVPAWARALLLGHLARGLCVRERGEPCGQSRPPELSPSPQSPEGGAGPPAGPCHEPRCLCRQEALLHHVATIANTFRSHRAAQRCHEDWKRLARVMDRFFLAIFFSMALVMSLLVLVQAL
A further test has as its target rα7 nAChR (Rattus norvegicus, UniProt Q05941). In kind it is cell-based. As to conditions: at 20 μM.

Sequence of rα3β4 nAChR (P04757 26-499 limits assumed): as the sequence (P04757 26-499 limits assumed) above
Sequence of rα3β4 nAChR (P12392 21-495 limits assumed): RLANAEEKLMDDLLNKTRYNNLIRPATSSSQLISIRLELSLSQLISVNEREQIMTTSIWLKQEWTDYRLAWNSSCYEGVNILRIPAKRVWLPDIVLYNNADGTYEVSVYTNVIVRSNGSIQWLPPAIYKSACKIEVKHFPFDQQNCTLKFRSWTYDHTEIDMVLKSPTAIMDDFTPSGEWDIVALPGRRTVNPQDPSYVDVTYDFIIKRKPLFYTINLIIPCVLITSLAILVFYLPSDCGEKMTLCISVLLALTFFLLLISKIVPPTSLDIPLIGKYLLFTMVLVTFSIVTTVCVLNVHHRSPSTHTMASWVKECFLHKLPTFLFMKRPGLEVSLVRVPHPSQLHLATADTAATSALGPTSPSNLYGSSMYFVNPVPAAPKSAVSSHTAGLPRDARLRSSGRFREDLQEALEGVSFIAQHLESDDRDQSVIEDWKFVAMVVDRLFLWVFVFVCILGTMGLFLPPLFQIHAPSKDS
Sequence of rα7 nAChR (Q05941 23-502 limits assumed): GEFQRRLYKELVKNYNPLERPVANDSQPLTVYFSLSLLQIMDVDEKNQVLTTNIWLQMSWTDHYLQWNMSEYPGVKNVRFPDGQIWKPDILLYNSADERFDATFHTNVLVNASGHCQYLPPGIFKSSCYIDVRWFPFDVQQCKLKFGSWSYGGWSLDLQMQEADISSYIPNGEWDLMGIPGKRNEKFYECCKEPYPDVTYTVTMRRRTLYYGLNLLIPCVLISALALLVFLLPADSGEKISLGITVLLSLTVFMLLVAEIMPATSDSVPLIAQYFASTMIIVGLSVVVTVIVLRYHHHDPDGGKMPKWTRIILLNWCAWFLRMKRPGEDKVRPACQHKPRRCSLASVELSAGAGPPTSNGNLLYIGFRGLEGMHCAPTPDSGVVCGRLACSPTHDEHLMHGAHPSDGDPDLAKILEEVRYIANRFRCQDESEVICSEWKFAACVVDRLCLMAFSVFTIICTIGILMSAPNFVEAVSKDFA

Take `CC[C@H](C)[C@@H]1NC(=O)[C@H](CCC(=O)O)NC(=O)[C@@H]2CCCN2C(=O)[C@H](Cc2c[nH]cn2)NC(=O)[C@H]([C@@H](C)O)NC(=O)[C@H](CCC(N)=O)NC(=O)[C@H](C)NC(=O)[C@@H]2CSSC[C@H](NC(=O)[C@H](CCC(=O)O)NC(=O)[C@@H](N)CC(=O)O)C(=O)N[C@@H](CSSC[C@@H](C(N)=O)NC1=O)C(=O)N[C@@H](CO)C(=O)N[C@@H](CC(N)=O)C(=O)N1CCC[C@H]1C(=O)N[C@@H](CO)C(=O)N2` [QuIA] (H-DECCSNPSCAQTHPEIC-NH2; disulfide 3-9, 4-17): the IC50 (in general, the concentration that gives 50% inhibition) against rα6/α3β2β3 nAChR was above 10 µM; on rα4β2 nAChR, above 10 µM; on rα6/α3β4 nAChR, 0.0907 µM; against rα9α10 nAChR it was above 10 µM; against rα3β2 nAChR, 0.0557 µM; against rα3β4 nAChR it was above 10 µM. Moreover, at hα9α10 nAChR, the IC50 was above 10 µM. The “blocking of ACh-induced current” value at rα6/α3β2β3 nAChR (at 10 µM) is listed as “^a Values in parentheses are a 95% confidence interval (C.I.). ^b Less than 50% blocking at 10 µM. All receptors are of rat (r) or human (h) origin, except α1β1δε, which is of mouse (m) origin. ND, not determined”; on rα4β2 nAChR (at 10 µM) it was “^a Values in parentheses are a 95% confidence interval (C.I.). ^b Less than 50% blocking at 10 µM. All receptors are of rat (r) or human (h) origin, except α1β1δε, which is of mouse (m) origin. ND, not determined”; on rα9α10 nAChR (at 10 µM), “^a Values in parentheses are a 95% confidence interval (C.I.). ^b Less than 50% blocking at 10 µM. All receptors are of rat (r) or human (h) origin, except α1β1δε, which is of mouse (m) origin. ND, not determined”; on rα3β4 nAChR (at 10 µM) it was “^a Values in parentheses are a 95% confidence interval (C.I.). ^b Less than 50% blocking at 10 µM. All receptors are of rat (r) or human (h) origin, except α1β1δε, which is of mouse (m) origin. ND, not determined”; on hα9α10 nAChR (at 10 µM), “^a Values in parentheses are a 95% confidence interval (C.I.). ^b Less than 50% blocking at 10 µM. All receptors are of rat (r) or human (h) origin, except α1β1δε, which is of mouse (m) origin. ND, not determined”; at rα7 nAChR it was “less than 50%”.
